Data from patent US7687501B2, “Pyridothienopyridazinone derivatives as mGluR1 antagonists” (Schering Corporation, priority 2005, dated 2010).
Where two headings read alike, the source gives them in different places.

Target: T1, hmGluR1 receptor (Homo sapiens, UniProt Q13255)
T1 construct: expressed in transfected cells; host or cells: CHO
Test: IC50 determination: intracellular calcium mobilization (FLIPR) upon Quisqualate stimulation in CHO cell line stably expressing hmGluR1
Assay type: cell-based
Conditions: CHO cells expressing hmGluR1, against Quisqualate 1 μM (EC80), compounds added 10 minutes before Quisqualate
Method: A CHO cell line stably expressing hmGluR1 receptor was established. One day prior to assay, cells were split in growth media at concentration of 50,000 cells/well in a volume of 100 μl and seeded into black clear-bottom 96-well plates. After two to six hours, when cells were well attached to the plate, growth medium was replaced with assay medium (100 μL) consisting of DMEM high glucose, supplemented with GPT (1 U/mL) and sodium pyruvate, 1 mM. Following overnight incubation, medium was discarded and cells were loaded for 2 hours with dye from the Calcium 3 Assay Reagent Kit (Molecular Devices, # R8033), prepared according to manufacturers' instructions. A 96-tip pipettor/fluorometric imaging plate reader (FLIPR 384; Molecular Devices) was used and intracellular calcium mobilization was measured by increases in fluorescence upon agonist Quisqualate stimulation following 6 sec-baseline measurement. Test compounds were added 10 minutes before Quisqualate. IC50 determinations for tested compounds were generated against Quisqualate 1 μM corresponding to EC80 value in a standard dose response curve.

T1 sequence (Q13255 19-1194): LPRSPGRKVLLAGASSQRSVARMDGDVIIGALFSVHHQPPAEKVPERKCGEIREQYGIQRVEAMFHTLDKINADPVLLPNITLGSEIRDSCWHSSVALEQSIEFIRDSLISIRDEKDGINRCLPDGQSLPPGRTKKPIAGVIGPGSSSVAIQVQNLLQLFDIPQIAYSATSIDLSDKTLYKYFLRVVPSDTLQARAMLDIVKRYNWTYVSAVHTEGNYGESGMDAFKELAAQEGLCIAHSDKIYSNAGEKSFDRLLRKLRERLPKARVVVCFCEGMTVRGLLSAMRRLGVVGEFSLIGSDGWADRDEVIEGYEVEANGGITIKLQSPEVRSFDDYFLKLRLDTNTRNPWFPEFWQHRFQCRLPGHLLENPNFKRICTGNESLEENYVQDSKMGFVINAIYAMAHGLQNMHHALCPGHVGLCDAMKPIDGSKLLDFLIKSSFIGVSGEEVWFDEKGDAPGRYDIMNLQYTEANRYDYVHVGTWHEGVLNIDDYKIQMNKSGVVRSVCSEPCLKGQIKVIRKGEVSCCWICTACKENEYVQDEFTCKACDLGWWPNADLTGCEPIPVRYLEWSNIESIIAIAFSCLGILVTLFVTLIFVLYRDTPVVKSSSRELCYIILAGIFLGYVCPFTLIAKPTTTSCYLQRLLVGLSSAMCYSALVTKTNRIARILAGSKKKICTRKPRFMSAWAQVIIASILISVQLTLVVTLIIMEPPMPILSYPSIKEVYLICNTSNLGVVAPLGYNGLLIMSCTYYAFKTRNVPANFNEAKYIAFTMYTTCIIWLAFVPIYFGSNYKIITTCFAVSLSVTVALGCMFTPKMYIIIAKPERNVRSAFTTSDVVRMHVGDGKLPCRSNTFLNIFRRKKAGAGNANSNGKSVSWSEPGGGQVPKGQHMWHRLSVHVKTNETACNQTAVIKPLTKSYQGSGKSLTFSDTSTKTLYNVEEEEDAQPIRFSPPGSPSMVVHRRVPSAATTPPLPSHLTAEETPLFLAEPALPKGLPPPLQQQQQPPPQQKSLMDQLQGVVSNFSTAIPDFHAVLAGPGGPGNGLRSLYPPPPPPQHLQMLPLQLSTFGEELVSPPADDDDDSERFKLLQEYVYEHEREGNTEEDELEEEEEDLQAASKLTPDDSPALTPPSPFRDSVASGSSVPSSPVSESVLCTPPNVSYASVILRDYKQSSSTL

| Structure (SMILES) | IC50 (read-out: mGluR1 IC50 rating) | IC50 (read-out: mGluR1 IC50) |
| --- | --- | --- |
| C#CCNc1ccnc2sc3c(=O)n(-c4ccc(OC)cc4)ncc3c12 [Compound 23M] | 100 to 1000 nM |  |
| COc1ccc(-n2nc(C)c3c(sc4nccc(N(C)C)c43)c2=O)cc1 [Compound 13D] | > 1000 nM |  |
| Cc1ccc(-n2ncc3c(sc4nccc(NCCO)c43)c2=O)cc1 [Compound 23H] | 100 to 1000 nM |  |
| CNc1ccnc2sc3c(=O)n(-c4ccc(Cl)cc4)ncc3c12 [Compound 23C] | < 20 nM |  |
| COc1ccc(-n2ncc3c(sc4nccc(NC5CC5)c43)c2=O)cc1 [Compound 23B] | 100 to 1000 nM |  |
| CN(C)c1ccnc2sc3c(=O)n(-c4ccc5ncsc5c4)ncc3c12 [Compound 9F] | < 20 nM | 7.8 nM |
| COc1ccc(-n2ncc3c(sc4nccc(N5CC(O)C5)c43)c2=O)cc1 [Compound 23P] | 100 to 1000 nM |  |
| CN(C)c1ccnc2sc3c(=O)n(-c4ccc(Cl)cc4)ncc3c12 [Compound 9C] | < 20 nM | 2.4 nM |
| COc1ccc(-n2ncc3c(sc4ncnc(OC)c43)c2=O)cc1 [Compound 34B] | 100 to 1000 nM |  |
| Cc1ccc(-n2nc(C)c3c(sc4nccc(N(C)C)c43)c2=O)cc1 [Compound 13B] | > 1000 nM |  |
| COc1ccc(-n2ncc3c(sc4ncnc(NC5CC5)c43)c2=O)cc1 [Compound 35B] | 20 to 100 nM |  |
| COc1ncnc2sc3c(=O)n(-c4ccc(Cl)cc4)ncc3c12 [Compound 34A] | 20 to 100 nM |  |
| CNc1ncnc2sc3c(=O)n(-c4ccc(OC)cc4)ncc3c12 [Compound 35C] | 100 to 1000 nM |  |
| O=c1c2sc3nccc(NCCO)c3c2cnn1-c1ccc(Cl)cc1 [Compound 23D] | 20 to 100 nM |  |
| COc1ccnc2sc3c(=O)n(-c4ccc(C)cc4)ncc3c12 [Compound 21C] | < 20 nM | 12.8 nM |
| COc1ccc(-n2ncc3c(sc4nccc(N5CCC5)c43)c2=O)cc1 [Compound 23L] | 100 to 1000 nM |  |
| CCNc1ccnc2sc3c(=O)n(-c4ccc(OC)cc4)ncc3c12 [Compound 23O] | 100 to 1000 nM |  |
| CCNc1ncnc2sc3c(=O)n(-c4ccc(OC)cc4)ncc3c12 [Compound 35A] | 100 to 1000 nM |  |
| Cc1ccc(-n2ncc3c(sc4nccc(NC5CC5)c43)c2=O)cc1 [Compound 23G] | < 20 nM | 18.5 nM |

| Structure (SMILES) | IC50 (read-out: mGluR1 IC50 rating) | IC50 (read-out: mGluR1 IC50) |
| --- | --- | --- |
| Cc1n[nH]c(=O)c2sc3nccc(N(C)C)c3c12 [Compound 13A] | > 1000 nM |  |
| COc1ccnc2sc3c(=O)n(-c4ccc(Cl)cc4)ncc3c12 [Compound 21A] | 20 to 100 nM |  |
| COc1ccc(-n2ncc3c(sc4nccc(N(C)N)c43)c2=O)cc1 [Compound 23I] | < 20 nM | 3.6 nM |
| COc1ccc(-n2ncc3c(sc4nccc(N(C)C)c43)c2=O)cc1 [Compound 9B] | < 20 nM | 4.5 nM |
| COc1ccc(-n2ncc3c(sc4nccc(NCCO)c43)c2=O)cc1 [Compound 23F] | 100 to 1000 nM |  |
| Cc1ccc(-n2ncc3c(sc4nccc(N(C)C)c43)c2=O)cc1 [Compound 9A] | < 20 nM | 3.6 nM |
| CN(C)c1ccnc2sc3c(=O)n(-c4ccc(Br)cc4)ncc3c12 [Compound 9D] | < 20 nM | 2.9 nM |
| CN(C)c1ccnc2sc3c(=O)n(-c4ccc5scnc5c4)ncc3c12 [Compound 9E] | < 20 nM | 4.3 nM |
| Cc1nn(C2CCCCC2)c(=O)c2sc3nccc(N(C)C)c3c12 [Compound 13C] | > 1000 nM |  |
| C#CCNc1ccnc2sc3c(=O)n(-c4ccc(C)cc4)ncc3c12 [Compound 23S] | 20 to 100 nM |  |
| CNc1ccnc2sc3c(=O)n(-c4ccc(C)cc4)ncc3c12 [Compound 23Q] | 20 to 100 nM |  |
| COCCNc1ccnc2sc3c(=O)n(-c4ccc(OC)cc4)ncc3c12 [Compound 23E] | > 1000 nM |  |
| O=c1c2sc3nccc(NC4CCC4)c3c2cnn1-c1ccc(Cl)cc1 [Compound 23J] | 100 to 1000 nM |  |
| CCNc1ccnc2sc3c(=O)n(-c4ccc(C)cc4)ncc3c12 [Compound 23R] | < 20 nM | 18 nM |
| CN(C)c1ccnc2sc3c(=O)n(C4CCCCC4)ncc3c12 [Compound 9G] | 20 to 100 nM |  |
| CNc1ccnc2sc3c(=O)n(-c4ccc(OC)cc4)ncc3c12 [Compound 23N] | 20 to 100 nM |  |
| CCNc1ccnc2sc3c(=O)n(-c4ccc(Cl)cc4)ncc3c12 [Compound 23K] | 20 to 100 nM |  |
| O=c1c2sc3nccc(NC4CC4)c3c2cnn1-c1ccc(Cl)cc1 [Compound 23A] | < 20 nM | 13.7 nM |
| COc1ccc(-n2ncc3c(sc4nccc(OC)c43)c2=O)cc1 [Compound 21B] | 20 to 100 nM |  |
